Here are results for three compounds from patent US11498933B2, “Prodrug compositions” (The University of Liverpool, priority 2017, dated 2022).

Series [1] can be described thus: Stability in single-round infectivity assay well media. The series is classed as in vitro ADME. Particulars: RPMI1640, 10% FBS, 50% heat-inactivated human serum, 37° C. Here is the method: Well media used in the single-round infectivity assays as described above, comprised of RPMI1640 medium supplemented with 10% FBS, cytokine-rich supernatant, 50% heat-inactivated human serum and HEPES buffer (12 mM). The emtricitabine test compounds were incubated in well media at 37° C. At various time points, aliquots were quenched in two volumes of ice-cold methanol. Quenched mixtures were then centrifuged at 14000 rpm for 5 minutes. The supernatant was diluted 10-fold into Tris buffer (30 mM, pH 7.4) and then analyzed via HPLC coupled with UV detection.
Stability studies indicate that both compounds 16 and 25 were hydrolyzed to the parent emtricitabine in a time-frame matching the time of pre-incubation in single-round infectivity assays. This is likely due to the presence of heat-inactivated serum still containing active esterases.

Series [2] is described as follows: Prodrug hydrolysis in mouse plasma. The series is classed as in vitro ADME. Particulars: 1 mM, compared with human plasma. Here is the method:
(§1) Reaction mixtures containing either mouse liver S9 (20.8 mg/mL), mouse plasma, rat liver S9 (1 mg/mL) and phosphate buffer (100 mM, pH 7.4), rat plasma, human liver S9 (1.0 mg/mL) and phosphate buffer (100 mM, pH 7.4) or human plasma were pre-incubated at 37° C. for 5 minutes. Reactions were then initiated by addition of compounds 4, 8 or 16 (1 mM in mouse, 0.5 mM in rat and human). After incubation at 37° C., aliquots are taken at each time point and quenched in two volumes of ice-cold methanol. The quenched aliquots were then centrifuged at 14000 rpm for 5 minutes. The supernatant was then diluted into phosphate buffer (30 mM, pH 7.4) to yield samples with concentrations suitable for analysis.

The test system of series [3] is CD4+ T cells. As to the kind of experiment: Viability staining (Zombie Red) in single-round infectivity assay. As to the method:
Peripheral blood mononuclear cells were isolated from healthy blood donors using Hypaque-Ficoll gradient centrifugation. CD4+ T cells were selected by magnetic beads (Miltenyi) and activated using anti-CD3 and anti-CD28 antibodies. Activated cells were seeded onto a 96-well plate at a concentration of 1×10^5 cells/well in RPMI1640 supplemented with 10% FBS, cytokine-rich supernatant, and 50% heat-inactivated human serum. Test compounds were added at this step and maintained throughout the culture. Cells were incubated at 37° C. for 21 hours. Pseudotype (GFP-tagged) HIV was then added to the culture via spinoculation and incubated for 3 days. Cells were then washed and stained with Zombie Red viability stain. Infectivity was quantified using flow cytometry.

A short description of series [4]: Prodrug hydrolysis in mouse liver S9. Conditions: 1 mM, compared with human liver S9. It is filed as in vitro ADME. As to the method:
as §1

The nature of series [5]: Half-life of emtricitabine amidine prodrug in phosphate buffer. Particulars: Phosphate Buffer (100 mM, pH 7.4), 37° C. The series is classed as physicochemical. Here is the method: (§2) To evaluate the hydrolysis rates of emtricitabine amidine prodrugs, HPLC coupled with UV detection was used with the following method (0% to 100% acetonitrile in Et3NHOAc (50 mM, pH 8) gradient) over 10 minutes at a flow rate of 3 mL min^−1, held at 100% acetonitrile for 3 minutes, ramped down to 5% acetonitrile over 0.2 minutes and then held for 2.8 minutes. Normal human serum (Bioreclamation) or phosphate buffer (100 mM, pH 7.4) was pre-incubated at 37° C. for 5 minutes. Emtricitabine amidine compound 23 (1 mM) was then added and the reaction mixture was incubated at 37° C. […] The supernatant was injected onto a HPLC system for analysis, the resulting data can be seen illustrated in FIG. 13.

The nature of series [6]: Half-life of emtricitabine amidine prodrug in human serum. It is filed as in vitro ADME. Conditions: normal human serum, 37° C. Here is the method: as §2
The nature of series [7]: Kinetic analysis of trimethyl lock prodrug in mouse liver S9 via UV. It is filed as in vitro ADME. Conditions: mouse liver S9 1.0 mg/mL. As to the method:
The reaction is then initiated by the addition of emtricitabine trimethyl lock compound 25 (concentration of compound 25 ranging from 600 μM to 6 mM). […] The supernatant was diluted into Tris buffer (30 mM, pH 7.4) to yield concentrations appropriate for analysis and read spectrophotometrically monitoring a decrease in substrate at 312 nm.

The nature of series [8]: Half-life measurements in human plasma (HPLC-UV). It is filed as in vitro ADME. Conditions: Human plasma, 37° C., read-out: Half-Life (converted). As to the method: (§3) To evaluate the hydrolysis rates of emtricitabine compounds 9-16, HPLC coupled with UV detection was used with the following method (0% to 100% acetonitrile in Et3NHOAc (50 mM, pH 8) gradient) over 10 minutes at a flow rate of 3 mL min^−1, held at 100% acetonitrile for 3 minutes, ramped down to 5% acetonitrile over 0.2 minutes and then held for 2.8 minutes. Male human plasma (Bioreclamation) or female human skeletal muscle S9 (7.96 mg/mL, Bioreclamation) was pre-incubated at 37° C. for 5 minutes. Compounds 9-16 (1 mM) were added and the reaction was incubated at 37° C. […] The supernatant was diluted 10 fold into Tris buffer (30 mM, pH 7.4) and injected onto the HPLC for analysis.
To evaluate the hydrolysis rates of emtricitabine trimethyl lock prodrugs, HPLC coupled with UV detection was used with the following method (0% to 100% acetonitrile in Et3NHOAc (50 mM, pH 8) gradient) over 10 minutes at a flow rate of 3 mL min^−1, held at 100% acetonitrile for 3 minutes, ramped down to 5% acetonitrile over 0.2 minutes and then held for 2.8 minutes. Human plasma (Bioreclamation) or human skeletal muscle S9 (7.96 mg/mL, Bioreclamation) was pre-incubated at 37° C. for 5 minutes. Emtricitabine trimethyl lock compound 25 (1 mM) was added and the reaction was incubated at 37° C. […] The supernatant was diluted in Tris buffer (100 mM, pH 7.4) and injected onto the HPLC for analysis. […]

A short description of series [9]: Half-life measurements in human skeletal muscle S9. The series is classed as in vitro ADME. Particulars: Human muscle S9 (7.96 mg/mL), 37° C. Here is the method: as §3
To evaluate the hydrolysis rates of emtricitabine trimethyl lock prodrugs, HPLC coupled with UV detection was used with the following method (0% to 100% acetonitrile in Et3NHOAc (50 mM, pH 8) gradient) over 10 minutes at a flow rate of 3 mL min^−1, held at 100% acetonitrile for 3 minutes, ramped down to 5% acetonitrile over 0.2 minutes and then held for 2.8 minutes. Human plasma (Bioreclamation) or human skeletal muscle S9 (7.96 mg/mL, Bioreclamation) was pre-incubated at 37° C. for 5 minutes. Emtricitabine trimethyl lock compound 25 (1 mM) was added and the reaction was incubated at 37° C. […] The supernatant was diluted in Tris buffer (100 mM, pH 7.4) and injected onto the HPLC for analysis.

A short description of series [10]: Kinetic analysis via UV in mixed pooled gender liver S9 (10.0 mg/mL). The series is classed as in vitro ADME, human. Here is the method: Reaction mixtures containing Tris buffer (30 mM, pH 7.4) and mixed pooled gender liver S9 (10.0 mg/mL) were pre-incubated at 37° C. for 5 min. […] After incubation at 37° C., aliquots were taken at each time point and quenched in two volumes of ice-cold methanol. The quenched aliquots were then centrifuged at 14000 rpm for 5 minutes. The supernatant was diluted into Tris buffer (30 mM, pH 7.4) to yield concentrations appropriate for analysis and read spectrophotometrically monitoring a decrease in substrate at 305 nm.
A reaction mixture containing Tris buffer (30 mM, pH 7.4) and mixed pooled gender liver S9 (10.0 mg/mL) was pre-incubated at 37° C. for 5 minutes. The reaction was then initiated by the addition of emtricitabine trimethyl lock compound 25 (concentration of compound 25 ranging from 100 μM to 8 mM). After incubation at 37° C., aliquots were taken at each time point and quenched in two volumes of ice-cold methanol. The quenched aliquots were then centrifuged at 14000 rpm for 5 minutes. The supernatant was diluted into Tris buffer (30 mM, pH 7.4) to yield samples having concentrations appropriate for analysis and read spectrophotometrically monitoring a decrease in substrate at 312 nm.

The structures appear in SMILES notation.

With `CCCCCCCCOC(=O)Nc1nc(=O)n([C@@H]2CS[C@H](CO)O2)cc1F` [Compound 16, octyl (5-fluoro-1-((2R,5S)-2-(hydroxymethyl)-1,3-oxathiolan-5-yl)-2-oxo-1,2-dihydropyrimidin-4-yl)carbamate], the half-life in series [1] is 18 h. For the same compound, the “hydrolysis rate in mouse plasma” value in [2] is “dramatically enhanced relative to human plasma”. The “toxicity on CD4+ T cells (viability staining)” value in [3] is “little to no toxicity”. Also, the “hydrolysis rate in mouse liver S9” value in series [4] is “comparable in mouse and human liver S9”.

In the case of `CN(C)/C=N\c1nc(=O)n([C@@H]2CS[C@H](CO)O2)cc1F` [Compound 23, (Z)—N′-(5-fluoro-1-((2R,5S)-2-(hydroxymethyl)-1,3-oxathiolan-5-yl)-2-oxo-1,2-dihydropyrimidin-4-yl)-N,N-dimethylformimidamide], the half-life at 1 mM was 95 h in series [5] and 5.8 h in series [6].

In turn, `CC(=O)Oc1cc(C)cc(C)c1C(C)(C)CC(=O)Nc1nc(=O)n([C@@H]2CS[C@H](CO)O2)cc1F` [Compound 25, 2-(4-((5-fluoro-1-((2R,5S)-2-(hydroxymethyl)-1,3-oxathiolan-5-yl)-2-oxo-1,2-dihydropyrimidin-4-yl)amino)-2-methyl-4-oxobutan-2-yl)-3,5-dimethylphenyl acetate] showed a half-life in series [1] of 0.83 h. Also, the Km in series [7] (both sexes, pooled mouse liver S9, pH 7.4, 600 μM to 6 mM) was 1600 µM; in [10] (both sexes, human, pooled liver S9, pH 7.4, 100 μM to 8 mM, 312 nm) it was 2400 µM. Further, the “Intrinsic Clearance” value is 138.3 µL/min/mg in series [7] and 11.5 µL/min/mg in [10]. Moreover, the results for the Vmax in [7] and in series [10] were 13200 nmol/h/mg and 1659 nmol/h/mg, respectively. In addition, the half-life at 1 mM is 0.4 h in series [8] and 1 h in series [9]. For the same compound, the “toxicity on CD4+ T cells (viability staining)” value in series [3] is reported as “little to no toxicity”.

A word on the half-life: it is the time needed for the level to fall by half in the phase considered. As a reminder, the Km is the substrate concentration at which the rate is half of its maximum. In general, Vmax refers to the top rate of the reaction or transport when substrate is in excess.
